Experimental data from patent US7858617B2, “2-oxy-benzoxazinone derivatives for the treatment of obesity” (Norgine B.V., priority 1999, dated 2010).

Columns and labels:
Type in all cases: biochemical
[1] = biological target: T1, human pancreatic lipase (Homo sapiens, UniProt P16233); test: Lipase activity, quinine diimine dye calorimetric assay (Sigma Lipase-PS); settings: at 500 nM; read-out: inhibited % of the pancreatic lipase activity
T1 sequence (P16233 17-465): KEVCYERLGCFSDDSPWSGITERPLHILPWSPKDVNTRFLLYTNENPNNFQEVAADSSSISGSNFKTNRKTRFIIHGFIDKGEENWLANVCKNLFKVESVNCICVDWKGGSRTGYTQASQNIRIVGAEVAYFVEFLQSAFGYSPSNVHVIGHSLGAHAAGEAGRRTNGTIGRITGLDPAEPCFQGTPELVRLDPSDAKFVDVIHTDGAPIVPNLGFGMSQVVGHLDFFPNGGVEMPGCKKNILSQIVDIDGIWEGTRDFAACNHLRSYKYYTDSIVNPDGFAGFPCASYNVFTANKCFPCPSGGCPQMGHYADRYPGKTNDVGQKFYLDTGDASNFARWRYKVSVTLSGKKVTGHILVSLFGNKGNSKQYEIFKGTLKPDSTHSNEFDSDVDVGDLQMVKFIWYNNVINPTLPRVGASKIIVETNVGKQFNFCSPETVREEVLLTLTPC
Protocol: Measurement of Lipase Activity Using a Quinine Diimine Dye Calorimetric Assay
The inhibitory activity of the selected compounds to pancreatic lipase was measured in the following assay available from Sigma Ltd (Lipase-PS™, catalog number 805-A):
The glycerol released from the action of pancreatic and monoglyceride lipase was oxidised to release H2O2. The peroxidase reaction step then produces a quinine dye which is pink in colour and absorbs light at a wavelength of 550 nm.
Individual test compounds were dissolved in DMSO (dimethyl sulphoxide) at 10 mM. DMSO was used to avoid any problems with compounds being water-insoluble. For individual compounds, the IC50 (concentration at which lipase activity is inhibited to one half of the maximum) was calculated by measuring the inhibitory activity from log-dose response curves using a range of inhibitor concentrations.
A range of compounds was assayed in the quinine diimine dye calorimetric assay which provides a rapid method to measure lipase inhibitory activity.

[2] = biological target: T2, Porcine trypsin (Sus scrofa, UniProt P00761); test: Measurement of trypsin activity; settings: at 500 nM; read-out: inhibited % of the trypsin activity
T2 construct: purchased Boehringer
T2 sequence (P00761 9-231): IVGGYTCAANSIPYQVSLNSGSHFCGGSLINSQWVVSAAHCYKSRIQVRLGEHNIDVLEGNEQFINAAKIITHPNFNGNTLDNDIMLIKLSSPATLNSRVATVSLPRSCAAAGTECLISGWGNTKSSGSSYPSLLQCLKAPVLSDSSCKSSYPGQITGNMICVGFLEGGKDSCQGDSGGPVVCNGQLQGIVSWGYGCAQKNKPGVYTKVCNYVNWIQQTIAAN
Protocol: Measurement of Trypsin Activity
Porcine trypsin (Boehringer) was dissolved at a concentration of 1 mg/ml in 100 mM MOPS (3-[N-Morpholino]propanesulphonic acid) pH 7.3 containing 2 mM CaCl2. Prior to use, the enzyme was diluted 500 times to give a final concentration of 2 μg/ml.
Selected compounds were routinely stored as 5 mM stock solutions dissolved in DMSO (Dimethylsulphoxide) at −20° C. For the assay, aliquots were defrosted and a series of dilutions (×100, ×200, ×1,000, ×2,000, ×10,000, ×20,000 and ×100,000) made in 100 mM MOPS pH 7.3 containing 2 mM CaCl2. The substrate Bz-Phe-Val-Arg-pNA (Benzoyl-phenylalanyl-valyl-arginine-p-nitroanilide) was dissolved in DMSO to give a 10 mM solution. Immediately prior to use, the substrate was diluted to 0.3 mM (30 μl/ml) in 100 mM MOPS containing […].
(§1) The assay was set up in triplicate in a 96 well ELISA plate. 10 μl 2 μg/ml trypsin, 26 μl diluted inhibitor and 190 μl substrate were added sequentially. The plates were then incubated at 37° C. in a BioRad Benchmark Microplate Reader. The rate of release of p-nitroaniline was measured at […] over 10 minutes relative to that of the enzyme without inhibitor.

[3] = biological target: T3, Bovine Chymotrypsin (Bos taurus, UniProt P00766); test: Measurement of chymotrypsin activity; settings: at 500 nM; read-out: inhibited % of the chymotrypsin activity
T3 construct: purchased Sigma C4129
Protocol: Measurement of Chymotrypsin Activity
Bovine Chymotrypsin (Sigma Type 11 Cat. No. C4129) was dissolved at a concentration of 1 mg/ml in 100 mM Tris pH 7.8. Prior to use, the enzyme was diluted 20 fold immediately before use, with the same buffer.
Selected compounds were routinely stored as 5 mM stock solutions dissolved in DMSO (Dimethylsulphoxide) at −20° C. For the assay, aliquots were defrosted and a series of dilutions (×20, ×100, ×200, ×1,000, ×2,000, ×10,000, ×20,000 and ×100,000) made in 100 mM Tris pH 7.8. The substrate H-Ala-Ala-Phe-p-nitroanilide (H-alanyl-alanyl-phenylalanine-p-nitroanilide) (Bachem Cat. No. L-1095) was dissolved in DMSO to give a 10 mM stock and stored at 4° C. until use. Immediately prior to use, the substrate was diluted to 0.3 mM final concentration (30 μl/ml) just before use.
as §1, with “50” for “2”, “chymotrypsin, 50” for “trypsin, 26”

- inhibition at 0.5 µM [1]: 98.7%
- inhibition at 0.5 µM [2]: 4%
- inhibition at 0.5 µM [3]: 12.5%
Structure (SMILES): CCCCCCCCCCCCCCCCOc1nc2ccc(C)cc2c(=O)o1 [Compound 18, 2-Hexadecyloxy-6-methyl-4H-3,1-benzoxazin-4-one]
